Square brackets hold non-standard residues; d marks the D form. Peptide text beside a SMILES is read from it. Phe(2-NO2) = N[C@@H](Cc1ccccc1[N+](=O)[O-])C(=O)O; Phe(3,4,5-F3) = N[C@@H](Cc1cc(F)c(F)c(F)c1)C(=O)O; Phe(3-CF3) = N[C@@H](Cc1cccc(C(F)(F)F)c1)C(=O)O; Phe(F5) = N[C@@H](Cc1c(F)c(F)c(F)c(F)c1F)C(=O)O; Phe(2-CF3) = N[C@@H](Cc1ccccc1C(F)(F)F)C(=O)O; Phe(2,6-F2) = N[C@@H](Cc1c(F)cccc1F)C(=O)O; Bip = N[C@@H](Cc1ccc(-c2ccccc2)cc1)C(=O)O; αMePhe(2-F) = C[C@](N)(Cc1ccccc1F)C(=O)O; Phe(2-CN) = N#Cc1ccccc1C[C@H](N)C(=O)O; Phe(2-Cl) = N[C@@H](Cc1ccccc1Cl)C(=O)O; Phe(2-F) = N[C@@H](Cc1ccccc1F)C(=O)O; Phe(2-Me) = Cc1ccccc1C[C@H](N)C(=O)O; hPhe = N[C@@H](CCc1ccccc1)C(=O)O; Aib = CC(C)(N)C(=O)O

One test deals with T1, hGLP1 receptor (Homo sapiens, UniProt P43220).
T1 construct: expressed in transfected cells; host or cells: HEK (human embryonic kidney) cells co-expressing hGLP1 receptor and CRE-Luciferase
T1 sequence (P43220 24-463): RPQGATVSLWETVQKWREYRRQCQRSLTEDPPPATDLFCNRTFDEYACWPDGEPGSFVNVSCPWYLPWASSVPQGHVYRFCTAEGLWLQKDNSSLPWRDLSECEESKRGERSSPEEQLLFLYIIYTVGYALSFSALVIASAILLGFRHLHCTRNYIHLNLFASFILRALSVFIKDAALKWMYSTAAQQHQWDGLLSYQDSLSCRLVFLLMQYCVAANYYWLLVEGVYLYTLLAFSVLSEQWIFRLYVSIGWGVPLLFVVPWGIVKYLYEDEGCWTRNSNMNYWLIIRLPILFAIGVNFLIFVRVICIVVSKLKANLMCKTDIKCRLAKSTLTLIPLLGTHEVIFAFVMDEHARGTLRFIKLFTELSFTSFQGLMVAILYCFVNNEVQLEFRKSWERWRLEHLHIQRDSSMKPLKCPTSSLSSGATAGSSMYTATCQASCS
As to the kind of experiment: cAMP HTRF agonist assay in HEK cells co-expressing hGLP1 receptor and CRE-Luciferase. It is filed as cell-based. The note with it: Table 1; cells marked (0% albumin); read-out: cAMP EC50, nM (0% albumin). As to the method: Human embryonic kidney cells (HEK) co-expressing the hGLP1 receptor and CRE-Luciferase construct were used to determine agonist potency in this assay. The cells were thawed briefly at 37° C., transferred to a sterile tube and re-suspended in complete media at 37° C. Cells were centrifuged at 1000 rpm for 5 minutes and cells collected; cells were re-suspended in assay buffer consisting of DPBS (GIBCO) with 500 μM of the phosphodiesterase inhibitor IBMX. […] The optimal cell density was determined to be 1000 cells/well; cells were added to wells in 384-well plates containing appropriate pre-prepared dilutions of compounds (test peptides or reference compound exendin-4), sealed and incubated with CO2 for 30 min. Test peptide solutions were diluted from 10 mM stock solutions; for most peptides an initial run was performed in duplicate from a maximal concentration of 1.0 μM, with 11 concentrations tested for each peptide using serial 1:3 dilution from this maximal concentration. […] The agonist assay was a homogeneous time-resolved fluorescence (HTRF) assay (Cisbio).
Following incubation of the cells for 30 minutes with test or reference peptides, 5 μL of the cAMP acceptor cAMP-d2, prepared previously as a working solution from frozen stock (1:20 dilution), was added to each well of the assay plate, along with 5 μL of anti-cAMP antibody-cryptate working solution (diluted 1:20 from frozen stock). The wells were incubated for 1 hour at room temperature, and fluorescence was then read at 665 and 615 nm with an Envision reader with TRF laser. Data were saved and analyzed using Prism software (GraphPad). Concentration-response analysis was performed using 4-parameter logistic fits of the resulting data, and EC50 values obtained for each test and reference compound.
As usually defined, the EC50 is the concentration that produces a half-maximal response. Consider `C[C@@H](O)[C@H](NC(=O)CNC(=O)[C@H](CCC(=O)O)NC(=O)C(C)(C)NC(=O)[C@@H](N)Cc1c[nH]cn1)C(=O)N[C@@H](Cc1c(F)cccc1F)C(=O)N[C@H](C(=O)N[C@@H](CO)C(=O)N[C@@H](CC(=O)O)C(=O)N[C@@H](Cc1ccc(-c2ccccc2)cc1)C(=O)N[C@@H](Cc1ccc(-c2ccccc2)cc1)C(N)=O)[C@@H](C)O` [3-8, H2N-His-Aib-Glu-Gly-Thr-Phe(2,6F)-Thr-Ser-Asp-Bip-Bip-C(O)NH2] (H-H[Aib]EGT[Phe(2,6-F2)]TSD[Bip][Bip]-NH2), for which the EC50 is 0.16 nM.

Still in this test, the particulars now being: cAMP EC50, nM (0.1% albumin), Table 1; 0.1% albumin.
`C[C@@H](O)[C@H](NC(=O)CNC(=O)[C@H](CCC(=O)O)NC(=O)C(C)(C)NC(=O)[C@@H](N)Cc1c[nH]cn1)C(=O)N[C@@H](Cc1ccccc1F)C(=O)N[C@H](C(=O)N[C@@H](CO)C(=O)N[C@@H](CC(=O)O)C(=O)N[C@@H](Cc1ccc(-c2ccccc2)cc1)C(=O)N[C@@H](Cc1ccc(-c2ccccc2)cc1)C(N)=O)[C@@H](C)O` [3-1, H2N-His-Aib-Glu-Gly-Thr-Phe(2-F)-Thr-Ser-Asp-Bip-Bip-C(O)NH2] (H-H[Aib]EGT[Phe(2-F)]TSD[Bip][Bip]-NH2) had an EC50 of 0.32 nM.
Still for that read-out and setting: to `C[C@@H](O)[C@H](NC(=O)CNC(=O)[C@H](CCC(=O)O)NC(=O)C(C)(C)NC(=O)[C@@H](N)Cc1c[nH]cn1)C(=O)N[C@@H](Cc1ccccc1Cl)C(=O)N[C@H](C(=O)N[C@@H](CO)C(=O)N[C@@H](CC(=O)O)C(=O)N[C@@H](Cc1ccc(-c2ccccc2)cc1)C(=O)N[C@@H](Cc1ccc(-c2ccccc2)cc1)C(N)=O)[C@@H](C)O` [3-2, H2N-His-Aib-Glu-Gly-Thr-Phe(2-Cl)-Thr-Ser-Asp-Bip-Bip-C(O)NH2] (H-H[Aib]EGT[Phe(2-Cl)]TSD[Bip][Bip]-NH2) belongs 4.5 nM.
Still for that read-out and setting: the figure for `C[C@@H](O)[C@H](NC(=O)CNC(=O)[C@H](CCC(=O)O)NC(=O)C(C)(C)NC(=O)[C@@H](N)Cc1c[nH]cn1)C(=O)N[C@@H](Cc1ccccc1C(F)(F)F)C(=O)N[C@H](C(=O)N[C@@H](CO)C(=O)N[C@@H](CC(=O)O)C(=O)N[C@@H](Cc1ccc(-c2ccccc2)cc1)C(=O)N[C@@H](Cc1ccc(-c2ccccc2)cc1)C(N)=O)[C@@H](C)O` [3-3, H2N-His-Aib-Glu-Gly-Thr-Phe(2-CF3)-Thr-Ser-Asp-Bip-Bip-C(O)NH2] (H-H[Aib]EGT[Phe(2-CF3)]TSD[Bip][Bip]-NH2) is 97.1 nM.
As to `Cc1ccccc1C[C@H](NC(=O)[C@@H](NC(=O)CNC(=O)[C@H](CCC(=O)O)NC(=O)C(C)(C)NC(=O)[C@@H](N)Cc1c[nH]cn1)[C@@H](C)O)C(=O)N[C@H](C(=O)N[C@@H](CO)C(=O)N[C@@H](CC(=O)O)C(=O)N[C@@H](Cc1ccc(-c2ccccc2)cc1)C(=O)N[C@@H](Cc1ccc(-c2ccccc2)cc1)C(N)=O)[C@@H](C)O` [3-4, H2N-His-Aib-Glu-Gly-Thr-Phe(2-CH3)-Thr-Ser-Asp-Bip-Bip-C(O)NH2] (H-H[Aib]EGT[Phe(2-Me)]TSD[Bip][Bip]-NH2), the EC50 stood at 9.55 nM.
In turn, `C[C@@H](O)[C@H](NC(=O)CNC(=O)[C@H](CCC(=O)O)NC(=O)C(C)(C)NC(=O)[C@@H](N)Cc1c[nH]cn1)C(=O)N[C@@H](Cc1ccccc1[N+](=O)[O-])C(=O)N[C@H](C(=O)N[C@@H](CO)C(=O)N[C@@H](CC(=O)O)C(=O)N[C@@H](Cc1ccc(-c2ccccc2)cc1)C(=O)N[C@@H](Cc1ccc(-c2ccccc2)cc1)C(N)=O)[C@@H](C)O` [3-5, H2N-His-Aib-Glu-Gly-Thr-Phe(2-NO2)-Thr-Ser-Asp-Bip-Bip-C(O)NH2] (H-H[Aib]EGT[Phe(2-NO2)]TSD[Bip][Bip]-NH2) returned an EC50 of 6.67 nM.
On the same count and under the same terms, the figure for `C[C@@H](O)[C@H](NC(=O)CNC(=O)[C@H](CCC(=O)O)NC(=O)C(C)(C)NC(=O)[C@@H](N)Cc1c[nH]cn1)C(=O)N[C@@H](Cc1ccccc1C#N)C(=O)N[C@H](C(=O)N[C@@H](CO)C(=O)N[C@@H](CC(=O)O)C(=O)N[C@@H](Cc1ccc(-c2ccccc2)cc1)C(=O)N[C@@H](Cc1ccc(-c2ccccc2)cc1)C(N)=O)[C@@H](C)O` [3-6, H2N-His-Aib-Glu-Gly-Thr-Phe(2-CN)-Thr-Ser-Asp-Bip-Bip-C(O)NH2] (H-H[Aib]EGT[Phe(2-CN)]TSD[Bip][Bip]-NH2) is 33.1 nM; for `C[C@@H](O)[C@H](NC(=O)CNC(=O)[C@H](CCC(=O)O)NC(=O)C(C)(C)NC(=O)[C@@H](N)Cc1c[nH]cn1)C(=O)N[C@@H](Cc1cccc(C(F)(F)F)c1)C(=O)N[C@H](C(=O)N[C@@H](CO)C(=O)N[C@@H](CC(=O)O)C(=O)N[C@@H](Cc1ccc(-c2ccccc2)cc1)C(=O)N[C@@H](Cc1ccc(-c2ccccc2)cc1)C(N)=O)[C@@H](C)O` [3-7, H2N-His-Aib-Glu-Gly-Thr-Phe(3-CF3)-Thr-Ser-Asp-Bip-Bip-C(O)NH2] (H-H[Aib]EGT[Phe(3-CF3)]TSD[Bip][Bip]-NH2) it is 97.5 nM.
Still for that read-out and setting: the figure for `C[C@@H](O)[C@H](NC(=O)CNC(=O)[C@H](CCC(=O)O)NC(=O)C(C)(C)NC(=O)[C@@H](N)Cc1c[nH]cn1)C(=O)N[C@@H](Cc1cc(F)c(F)c(F)c1)C(=O)N[C@H](C(=O)N[C@@H](CO)C(=O)N[C@@H](CC(=O)O)C(=O)N[C@@H](Cc1ccc(-c2ccccc2)cc1)C(=O)N[C@@H](Cc1ccc(-c2ccccc2)cc1)C(N)=O)[C@@H](C)O` [3-9, H2N-His-Aib-Glu-Gly-Thr-Phe(3,4,5-F)-Thr-Ser-Asp-Bip-Bip-C(O)NH2] (H-H[Aib]EGT[Phe(3,4,5-F3)]TSD[Bip][Bip]-NH2) is 44.6 nM.
On the same count and under the same terms, the figure for `C[C@@H](O)[C@H](NC(=O)CNC(=O)[C@H](CCC(=O)O)NC(=O)C(C)(C)NC(=O)[C@@H](N)Cc1c[nH]cn1)C(=O)N[C@@H](Cc1c(F)c(F)c(F)c(F)c1F)C(=O)N[C@H](C(=O)N[C@@H](CO)C(=O)N[C@@H](CC(=O)O)C(=O)N[C@@H](Cc1ccc(-c2ccccc2)cc1)C(=O)N[C@@H](Cc1ccc(-c2ccccc2)cc1)C(N)=O)[C@@H](C)O` [3-10, H2N-His-Aib-Glu-Gly-Thr-Phe(2,3,4,5,6-F)-Thr-Ser-Asp-Bip-Bip-C(O)NH2] (H-H[Aib]EGT[Phe(F5)]TSD[Bip][Bip]-NH2) is 1.8 nM.
Turning to `C[C@@H](O)[C@H](NC(=O)CNC(=O)[C@H](CCC(=O)O)NC(=O)C(C)(C)NC(=O)[C@@H](N)Cc1c[nH]cn1)C(=O)N[C@@H](CCc1ccccc1)C(=O)N[C@H](C(=O)N[C@@H](CO)C(=O)N[C@@H](CC(=O)O)C(=O)N[C@@H](Cc1ccc(-c2ccccc2)cc1)C(=O)N[C@@H](Cc1ccc(-c2ccccc2)cc1)C(N)=O)[C@@H](C)O` [3-11, H2N-His-Aib-Glu-Gly-Thr-hPhe-Thr-Ser-Asp-Bip-Bip-C(O)NH2] (H-H[Aib]EGT[hPhe]TSD[Bip][Bip]-NH2), the midpoint of the response, the EC50, lay at 32.6 nM.

The test is the same for the next values; noted with them: cAMP EC50, nM (0.1% albumin), Table 4; 0.1% albumin.
For the compound `CC(C)C[C@H](NC(=O)[C@@H](N)Cc1c[nH]cn1)C(=O)NC(C)(C)C(=O)N[C@@H](CC(=O)O)C(=O)NCC(=O)N[C@H](C(=O)N[C@@](C)(Cc1ccccc1F)C(=O)N[C@H](C(=O)N[C@@H](CO)C(=O)N[C@@H](CC(=O)O)C(=O)N[C@@H](Cc1ccc(-c2ccccc2)cc1)C(=O)N[C@@H](Cc1ccc(-c2ccccc2)cc1)C(N)=O)[C@@H](C)O)[C@@H](C)O` [2-9, H2N-His-Leu-Aib-Asp-Gly-Thr-α-MePhe(2-F)-Thr-Ser-Asp-Bip-Bip-C(O)NH2] (H-HL[Aib]DGT[αMePhe(2-F)]TSD[Bip][Bip]-NH2), the response was half-maximal at 6.4 nM (EC50).

These data come from patent publication US20230015478A1, “GLP-1 RECEPTOR AGONISTS HAVING IMPROVED PHARMACOLOGICAL AND DRUG DELIVERY PROPERTIES” (priority 2021, published 2023).
